Reference: patent US7572783B2 (Amgen Inc., priority 2004, dated 2009)

Molecular target: T1, human GHSR1a (Homo sapiens, UniProt Q92847)
T1 construct: expressed in transfected cells
Assay: Aequorin luminescent functional assay (intracellular Ca2+, ghrelin-stimulated)
Details: stable cell line expressing human GHSR1a and apoaequorin; final ghrelin 3x EC50 (20 nM); read-out: Class (based on IC50 values)
Description: IC50 values of inventive compounds may be assessed as follows. An aequorin (Euroscreen) luminescent assay (Stabels et al., 1997) measuring the intracellular Ca^2+ concentration was used as the functional assay to evaluate the potency of the compounds. A stable cell line, expressing human GHSR1a and apoaequorin in mitochondria was used in the aequorin assay. 5×10^6 cells per mL were incubated at room temperature in HyClone Media (Perbio) supplemented with 2 μM coelenterazine (Molecular Probes). After 2 hrs cells were diluted to 1×10^6 cells per ml in HyClone Medium.
50 μL of the cell suspension was added to each well of a 96-well plate containing 50 μL of compound, diluted in HyClone Medium. The cell suspension/compound mixture was incubated for 30 seconds before 50 μL of a 9× EC50 concentrations of a human ghrelin solution, in HyClone Medium, was injected. The final Ghrelin concentration was 3× EC50 (20 nM). Aequorin luminescence elicited by intracellular Ca^2+ in the cells was recorded for a total of 60 seconds with a microplate luminometer (Microlumate, Berthold). IC50 of the compounds in this assay was calculated with Prism 4.

T1 sequence (Q92847 whole entry): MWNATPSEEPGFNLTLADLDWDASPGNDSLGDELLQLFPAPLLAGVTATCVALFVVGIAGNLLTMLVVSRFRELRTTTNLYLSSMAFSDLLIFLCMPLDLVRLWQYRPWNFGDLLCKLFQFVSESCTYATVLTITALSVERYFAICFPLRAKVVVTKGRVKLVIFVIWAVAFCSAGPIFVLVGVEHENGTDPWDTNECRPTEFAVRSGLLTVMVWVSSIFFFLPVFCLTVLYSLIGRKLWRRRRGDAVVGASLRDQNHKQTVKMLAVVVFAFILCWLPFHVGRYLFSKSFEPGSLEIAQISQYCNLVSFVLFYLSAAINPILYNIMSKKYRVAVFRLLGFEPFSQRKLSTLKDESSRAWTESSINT

Row | IC50 | SMILES
1 | ≤ 10 nM | O=C1c2cc(Oc3ccc(F)cc3F)ccc2CCN1[C@@H](c1cccc(CNCC2CC2)n1)C1CC1 [(R)-2-(cyclopropyl(6-((cyclopropylmethylamino)methyl)pyridin-2-yl)methyl)-7-(2,4-difluorophenoxy)-3,4-dihydroisoquinolin-1(2H)-one]
2 | ≤ 10 nM | Cc1cc(F)ccc1Oc1ccc2c(c1)C(=O)N(C(C(=O)NC1CCN(Cc3ccccc3)CC1)C(C)C)Cc1ncc(C)n1-2 (stereo not shown) [N-(1-benzyl-piperidin-4-yl)-2-[8-(4-fluoro-2-methyl-phenoxy)-1-methyl-6-oxo-4H,6H-3,5,10b-triaza-benzo[e]azulen-5-yl]-3-methyl-butyramide]
3 | 10 to 50 nM | Cc1ccccc1Oc1ccc2ncn(C(C(=O)NC3CCN(Cc4ccccc4)CC3)C(C)C)c(=O)c2c1 (stereo not shown) [N-(1-benzyl-piperidin-4-yl)-3-methyl-2-(4-oxo-6-o-tolyloxy-4H-quinazolin-3-yl)-butyramide]
4 | 50 to 500 nM | CC(C)C(COC(=O)NC1CCN(Cc2ccc(F)cc2)CC1)N1CC(=O)Nc2ccc(Oc3ccc(F)cc3)cc2C1=O (stereo not shown) [[1-(4-Fluoro-benzyl)-piperidin-4-yl]-carbamic acid 2-[7-(4-fluoro-phenoxy)-2,5-dioxo-1,2,3,5-tetrahydro-benzo[e][1,4]diazepin-4-yl]-3-methyl-butyl ester]
